Test results as given in patent publication US20180118648A1, “5-SUBSTITUTED-5-HYDROXY-5-ARYL-3-OXO-PENTANOATE DERIVATIVES AND THEIR ENANTIOPURE FORMS” (OKINAWA INSTITUTE OF SCIENCE AND TECHNOLOGY SCHOOL …, priority 2015, published 2018).

Row | SMILES | melting point [°C]
1 | CCOC(=O)/C=C(\C[C@@](O)(c1ccccc1)C(F)(F)F)N[C@H](C)c1ccccc1 [Compound 5a-1, (R)-ethyl 6,6,6,-trifluoro-5-hydroxy-5-phenyl-(((R)-1-phenyl)amino)hex-2-enoate] | 126
2 | CCOC(=O)/C=C(\C[C@@](O)(c1cccs1)C(F)(F)F)N[C@H](C)c1ccccc1 [Compound 5ac-1, (S)-ethyl 6,6,6-trifluoro-5-hydroxy-3-(((R)-1-phenylethyl)amino)-5-(thiophen-2-yl)hexa-2-enoate] | 133
